Measurements as given in PubChem BioAssay AID330 (DTP/NCI, 2004).
“And” between values parts separate entries of the source, which are not always exact repeats. Identical values can stand only once. Toxic doses and inconclusive results are not listed.

Test system: P388 leukemia ip, CD2F1 mice, survival T/C
Experiment: NCI In Vivo Anticancer Drug Screen. Data for tumor model P388 Leukemia (intraperitoneal) in CD2F1 (CDF1) mice
Conditions: endpoint: median survival time, higher = longer survival
Method in brief: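 Mice carrying the transplanted tumor received test compound or vehicle. Survival was recorded in each group, and the value is the treated-group measurement divided by that of the vehicle-treated control group.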

[1] = dose: 50.0 mg/kg/injection, schedule: Q01DX005 (ip), vehicle: Klucel (hydroxypropylcellulose) (HPC)
[2] = dose: 100.0 mg/kg/injection, schedule: Q01DX005 (ip), vehicle: Klucel (hydroxypropylcellulose) (HPC)
[3] = dose: 200.0 mg/kg/injection, schedule: Q01DX005 (ip), vehicle: Klucel (hydroxypropylcellulose) (HPC)
[4] = dose: 60.0 mg/kg/injection, schedule: Q01DX005 (ip), vehicle: saline with Tween-80
[5] = dose: 120.0 mg/kg/injection, schedule: Q01DX005 (ip), vehicle: saline with Tween-80
[6] = dose: 240.0 mg/kg/injection, schedule: Q01DX005 (ip), vehicle: saline with Tween-80

O=C(c1ccccc1)N1CC1
T/C (dose: 50.0 mg/kg/injection, schedule: Q01DX009 (ip), vehicle: saline + alcohol): 94 % of control | T/C (dose: 100.0 mg/kg/injection, schedule: Q01DX009 (ip), vehicle: saline + alcohol): 97 % of control | T/C (dose: 200.0 mg/kg/injection, schedule: Q01DX009 (ip), vehicle: saline + alcohol): 100 % of control | T/C (dose: 400.0 mg/kg/injection, schedule: Q01DX009 (ip), vehicle: saline + alcohol): 116 % of control

O=C(COc1ccc(Cl)cc1Cl)Nc1ccc(I)cc1C(=O)O
T/C (dose: 50.0 mg/kg/injection, schedule: Q01DX009 (ip), vehicle: Klucel (hydroxypropylcellulose) (HPC)): 94 % of control | T/C (dose: 100.0 mg/kg/injection, schedule: Q01DX009 (ip), vehicle: Klucel (hydroxypropylcellulose) (HPC)): 92 % of control | T/C (dose: 200.0 mg/kg/injection, schedule: Q01DX009 (ip), vehicle: Klucel (hydroxypropylcellulose) (HPC)): 91 % of control

CN(C)CCN1C(=O)C2(C)C3CCC(O3)C2(C)C1=O (configuration not stated)
T/C (dose: 50.0 mg/kg/injection, schedule: Q01DX005 (ip), vehicle: saline with Tween-80): 103 % of control | T/C (dose: 100.0 mg/kg/injection, schedule: Q01DX005 (ip), vehicle: saline with Tween-80): 100 % of control | T/C (dose: 200.0 mg/kg/injection, schedule: Q01DX005 (ip), vehicle: saline with Tween-80): 100 % of control

CC(=O)OC1C(O)C(C)OC(OC2C(OC(=O)C3CCC4C(C3)OC3(CC(OC(=O)/C=C/c5ccccc5)C(C)CO3)C43CO3)OC(CO)C(O)C2OC(C)=O)C1O (configuration not stated)
T/C (dose: 1.5 mg/kg/injection, schedule: Q01DX009 (ip), vehicle: saline + alcohol): 106 % of control | T/C (dose: 3.0 mg/kg/injection, schedule: Q01DX009 (ip), vehicle: saline + alcohol): 106 % of control and 116 % of control

O=C(O)Cc1c[nH]c2cc(Cl)ccc12
T/C (dose: 50.0 mg/kg/injection, schedule: Q01DX009 (ip), vehicle: saline with Tween-80): 100 % of control | T/C (dose: 100.0 mg/kg/injection, schedule: Q01DX009 (ip), vehicle: saline with Tween-80): 102 % of control | T/C (dose: 200.0 mg/kg/injection, schedule: Q01DX009 (ip), vehicle: saline with Tween-80): 105 % of control

CN1CCc2c1cc(-c1ccco1)c1c2N(C)CC1
T/C [1]: 104 % of control | T/C [2]: 111 % of control | T/C [3]: 107 % of control

O=C1C(c2ccccc2)=S=C2C=Cc3ccccc3N12
T/C (dose: 100.0 mg/kg/injection, schedule: Q01DX001 (ip), vehicle: saline with Tween-80): 109 % of control | T/C (dose: 200.0 mg/kg/injection, schedule: Q01DX001 (ip), vehicle: saline with Tween-80): 111 % of control | T/C (dose: 400.0 mg/kg/injection, schedule: Q01DX001 (ip), vehicle: saline with Tween-80): 116 % of control

C/C=C1/CN2CCC34c5ccccc5N(C(C)=O)C3C(CO)C1CC24 (configuration not stated)
T/C (dose: 11.25 mg/kg/injection, schedule: Q01DX009 (ip), vehicle: saline with Tween-80): 106 % of control | T/C (dose: 22.5 mg/kg/injection, schedule: Q01DX009 (ip), vehicle: saline with Tween-80): 100 % of control | T/C (dose: 45.0 mg/kg/injection, schedule: Q01DX009 (ip), vehicle: saline with Tween-80): 102 % of control | T/C (dose: 90.0 mg/kg/injection, schedule: Q01DX009 (ip), vehicle: saline with Tween-80): 100 % of control

COC(=O)c1cc(=O)n(C)[nH]1
T/C [1]: 104 % of control | T/C [2]: 105 % of control | T/C [3]: 98 % of control

CC1(C)C(C#N)C(=O)NC(=O)C1C#N (configuration not stated)
T/C (dose: 12.5 mg/kg/injection, schedule: Q01DX009 (ip), vehicle: water): 97 % of control | T/C (dose: 25.0 mg/kg/injection, schedule: Q01DX009 (ip), vehicle: water): 95 % of control | T/C (dose: 50.0 mg/kg/injection, schedule: Q01DX009 (ip), vehicle: water): 93 % of control | T/C (dose: 100.0 mg/kg/injection, schedule: Q01DX009 (ip), vehicle: water): 104 % of control | T/C (dose: 200.0 mg/kg/injection, schedule: Q01DX009 (ip), vehicle: water): 101 % of control

COC(=O)C1CCC(=O)N1Cc1cccs1 (configuration not stated)
T/C [4]: 109 % of control | T/C [5]: 104 % of control | T/C [6]: 106 % of control

O=C1C2=C(Nc3cc([N+](=O)[O-])ccc3N2)OC1c1c2ccccc2cc2ccccc12 (configuration not stated)
T/C (dose: 60.0 mg/kg/injection, schedule: Q01DX005 (ip), vehicle: Klucel (hydroxypropylcellulose) (HPC)): 94 % of control | T/C (dose: 120.0 mg/kg/injection, schedule: Q01DX005 (ip), vehicle: Klucel (hydroxypropylcellulose) (HPC)): 88 % of control

C=CCn1cc(F)c(=O)[nH]c1=O
T/C (dose: 30.0 mg/kg/injection, schedule: Q04DX002 (ip), vehicle: saline): 97 % of control | T/C (dose: 60.0 mg/kg/injection, schedule: Q04DX002 (ip), vehicle: saline): 100 % of control | T/C (dose: 120.0 mg/kg/injection, schedule: Q04DX002 (ip), vehicle: saline): 104 % of control | T/C (dose: 150.0 mg/kg/injection, schedule: Q04DX002 (ip), vehicle: saline): 100 % of control | T/C (dose: 240.0 mg/kg/injection, schedule: Q04DX002 (ip), vehicle: saline): 99 % of control | T/C (dose: 300.0 mg/kg/injection, schedule: Q04DX002 (ip), vehicle: saline): 98 % of control | T/C (dose: 600.0 mg/kg/injection, schedule: Q04DX002 (ip), vehicle: saline): 106 % of control

C[C@H](N)C(=O)N[C@@H]1[C@H]2C(=C(O)C[C@@H](O)[C@@H]2O)C(=O)O[C@@H]1C
T/C (dose: 150.0 mg/kg/injection, schedule: Q01DX005 (ip), vehicle: saline): 115 % of control | T/C (dose: 600.0 mg/kg/injection, schedule: Q01DX005 (ip), vehicle: suspension in saline): 153 % of control

CCCCCCCCCCCCCCCCCC[N+](C)(C)C (tested in a mixture with another compound)
T/C (dose: 1.5 mg/kg/injection, schedule: Q01DX009 (ip), vehicle: saline with Tween-80): 90 % of control | T/C (dose: 3.0 mg/kg/injection, schedule: Q01DX009 (ip), vehicle: saline with Tween-80): 113 % of control | T/C (dose: 6.25 mg/kg/injection, schedule: Q01DX009 (ip), vehicle: saline): 109 % of control | T/C (dose: 12.5 mg/kg/injection, schedule: Q01DX009 (ip), vehicle: saline): 113 % of control

CCOC(=O)c1c(C)c2c(n1Cc1ccccc1)CCCC2=O
T/C (dose: 100.0 mg/kg/injection, schedule: Q04DX003 (ip), vehicle: Klucel (hydroxypropylcellulose) (HPC)): 99 % of control | T/C (dose: 200.0 mg/kg/injection, schedule: Q04DX003 (ip), vehicle: Klucel (hydroxypropylcellulose) (HPC)): 97 % of control | T/C (dose: 400.0 mg/kg/injection, schedule: Q04DX003 (ip), vehicle: Klucel (hydroxypropylcellulose) (HPC)): 98 % of control

CS(=O)(=O)N/N=C(\N)Oc1ccc(Cl)cc1Cl
T/C [4]: 97 % of control | T/C [5]: 93 % of control | T/C [6]: 88 % of control

CC1=C(C(=O)Nc2cccc3ccccc23)C(c2cccc([N+](=O)[O-])c2)C(C(=O)Nc2cccc3ccccc23)=C(C)N1
T/C (dose: 7.5 mg/kg/injection, schedule: Q01DX005 (ip), vehicle: Klucel (hydroxypropylcellulose) (HPC)): 100 % of control | T/C (dose: 15.0 mg/kg/injection, schedule: Q01DX005 (ip), vehicle: Klucel (hydroxypropylcellulose) (HPC)): 100 % of control | T/C (dose: 30.0 mg/kg/injection, schedule: Q01DX005 (ip), vehicle: Klucel (hydroxypropylcellulose) (HPC)): 103 % of control

c1cncc(-c2n[nH]c3c2CCCc2ccccc2-3)c1
T/C (dose: 12.5 mg/kg/injection, schedule: Q01DX009 (ip), vehicle: other): 107 % of control | T/C (dose: 25.0 mg/kg/injection, schedule: Q01DX009 (ip), vehicle: other): 100 % of control | T/C (dose: 50.0 mg/kg/injection, schedule: Q01DX009 (ip), vehicle: other): 107 % of control | T/C (dose: 100.0 mg/kg/injection, schedule: Q01DX009 (ip), vehicle: other): 96 % of control | T/C (dose: 200.0 mg/kg/injection, schedule: Q01DX009 (ip), vehicle: other): 105 % of control

C/C(=N\N=C(N)N)c1ccc2c(c1)Cc1cc(/C(C)=N/N=C(N)N)ccc1-2
T/C (dose: 3.12 mg/kg/injection, schedule: Q04DX002 (ip), vehicle: saline with Tween-80): 100 % of control and 107 % of control | T/C (dose: 6.25 mg/kg/injection, schedule: Q04DX002 (ip), vehicle: saline with Tween-80): 107 % of control and 108 % of control | T/C (dose: 12.5 mg/kg/injection, schedule: Q04DX002 (ip), vehicle: saline with Tween-80): 115 % of control (2×) and 122 % of control | T/C (dose: 25.0 mg/kg/injection, schedule: Q04DX002 (ip), vehicle: saline with Tween-80): 120 % of control and 121 % of control and 123 % of control | T/C (dose: 50.0 mg/kg/injection, schedule: Q04DX002 (ip), vehicle: saline with Tween-80): 115 % of control and 121 % of control and 124 % of control | T/C (dose: 100.0 mg/kg/injection, schedule: Q04DX002 (ip), vehicle: saline with Tween-80): 112 % of control and 122 % of control | T/C (dose: 200.0 mg/kg/injection, schedule: Q04DX002 (ip), vehicle: saline with Tween-80): 122 % of control
